Residues, ends and D or L forms follow the SMILES beside them. *: point of attachment. Cbz = O=C(OCc1ccccc1)*
Legend:
LKB1 = LKB1 Ser428 phosphorylation in skeletal muscle of mice; assay type: in vivo, C57BL/6J mice; details: gavage; compared to vehicle gavaged mice
Method: Tubulin or β-actin are included as a loading control.
Male C57BL/6J mice were obtained from Jackson Laboratories (Bar Harbor, Me., USA). All animal experiments were approved by the Rutgers University Animal Care and Use Committee (Protocol #04-023) and were in compliance with the NIH Guide for the Care and Use of Laboratory. The animals were housed singly with a 12 hour light-dark cycle at 24° C. At 4 weeks of age, the mice were placed on a very high fat diet (60 kcal % fat, D12492, Research Diets) for 16 weeks. Body weight was measured weekly. […] Blood glucose levels were assayed at baseline and each hour thereafter up to 6 hours post gavage. The mice were euthanized and tissues were collected for analysis at 6 hours after gavage.
C2C12 myotube lysates were prepared by sonication in 20 mM Tris pH 7.4, 1% Igepal CA630, 5 mM EDTA with 10 mM Na4P2O7, 100 mM NaF, 2 mM Na3VO4, 1 mM PMSF, 10 μg/ml aprotinin, 1 μg/ml pepstatin, and 5 μg/ml leupeptin. The tissue and cell lysates were centrifuged at 14,000×g for 10 minutes at 4° C. Protein concentrations were determined using BCA assays (Thermo Fisher Scientific, Rockford, Ill., USA) and the resulting supernatants (50 μg) were resolved by 10% SDS-PAGE and subjected to immunoblotting. […] Image J software was used for quantification of the western blot band intensities.

SIRT1 = SIRT1 protein expression in skeletal muscle of mice; assay type: in vivo, C57BL/6J mice; details: gavage
Method: Male C57BL/6J mice were obtained from Jackson Laboratories (Bar Harbor, Me., USA). […] The animals were housed singly with a 12 hour light-dark cycle at 24° C. At 4 weeks of age, the mice were placed on a very high fat diet (60 kcal % fat, D12492, Research Diets) for 16 weeks. Body weight was measured weekly. […] Blood glucose levels were assayed at baseline and each hour thereafter up to 6 hours post gavage. The mice were euthanized and tissues were collected for analysis at 6 hours after gavage.
The tissue and cell lysates were centrifuged at 14,000×g for 10 minutes at 4° C. Protein concentrations were determined using BCA assays (Thermo Fisher Scientific, Rockford, Ill., USA) and the resulting supernatants (50 μg) were resolved by 10% SDS-PAGE and subjected to immunoblotting. Nitrocellulose membranes were incubated with antibodies for 1-2 hours at RT or overnight at 4° C. Image J software was used for quantification of the western blot band intensities.

AMPK = AMPK Thr172 phosphorylation in C2C12 myotubes (immunoblot); assay type: cell-based, murine; details: for increase in phosphorylation of AMPK (phospho-AMPK to total AMPK, fold over 0-time): 1 hour of exposure, PMI-5011 10 μg/ml, AICAR 0.5 mM, metformin 2 mM
Source text: Results shown are representative of three independent experiments.

[1] = Blood glucose in very high fat diet obese insulin-resistant mice, 6 h after gavage; assay type: in vivo, C57BL/6J male mice; details: 6 hour treatment, PMI-5011 500 mg/kg, KOE 500 mg/kg, KOF 100 mg/kg, 2 at 100 or 300 mg/kg, metformin 300 mg/kg
Method: (A) C57BL/6J male mice were fed a 60% kcal fat diet for 16 weeks prior to a 6 h treatment with labrasol (vehicle), metformin, PMI-5011, reconstituted PMI-5011 (RE=KOE+KOF), KOE, KOF, synthetic 2. […] Statistical significance is reported as mean−/+standard deviation, compared to (vehicle) control.
(A) Absolute (mg/dL) and (B) percent change in blood glucose levels from baseline for each treatment group six hours after treatment. […] Statistical significance is reported as mean−/+standard deviation, compared to (vehicle) control; ns, not significant; *p<0.05; ** p<0.01; *** p<0.001.
Glucose Homeostasis. […] To address this, C57BL/6J male mice were fed a very high fat diet (60% kcal fat, VHFD) over 16 weeks to induce obesity, prior to testing the ability of PMI-5011 (500 mg/kg), KOE (500 mg/kg), KOF (100 mg/kg), and purified 2 at 100 or 300 mg/kg body weight to alter blood glucose levels (FIG. 4). Metformin (300 mg/kg) was used as a positive control.
Animal Experiments. Male C57BL/6J mice were obtained from Jackson Laboratories (Bar Harbor, Me.). […] The animals were housed singly with a 12 h light-dark cycle at 24° C. […] Body weight was measured weekly. […]
Blood and Tissue Chemistry. Fasting glucose levels were measured in whole blood using a Breeze2 glucometer (Bayer, Leverkusen, Germany). […]

C2C12 myotubes [2] = details: mouse, 10 μg/mL
Method: (§1) C2C12 myotubes were incubated with vehicle control (DMSO) or PMI-5011 (10 μg/mL) for 1, 6, or 16 h as indicated. At each time point, (A) the medium and washes were collected at neutral pH, (B) this was followed by collection of surface bound compounds at acidic pH and cell lysates that were separated into soluble (Lysate) and insoluble fractions (Pellet) for analysis of content by UPLC/MS.
(§2) Murine C2C12 (ATCC; #CRL-1771) or rat L6 myoblasts (ATCC, #CRL-1458) were cultured in DMEM, high glucose (25 mM) with 10% FBS, 2 mM glutamine, and antibiotics (100 units/mL penicillin G and 100 μg/mL streptomycin) in a humidified chamber at 37° C. and 5% CO2. To obtain fully differentiated myotubes, the medium was exchanged for DMEM, high glucose with 2% horse serum, glutamine, and antibiotics when the myoblasts reached confluence. The medium was replaced every 48 hours, and the cells were maintained in this medium until fully differentiated, when the medium was exchanged for DMEM, low glucose (5 mM) with 2% horse serum. The myotubes were fully formed by the fourth day post-induction. The experiments analyzing the impact of each experimental material on insulin signaling in the presence of palmitate-induced insulin resistance were performed as described previously.^31 To determine uptake of bioactives into the myotubes, the cells were treated with PMI-5011 (10 μg/mL) for 0, 1, or 16 h prior to medium collection. At each time point, the cells were thoroughly rinsed with D-Hanks, pH 7.4 at 4° C., followed by incubation with D-Hanks buffer, pH 4.0 at 4° C. for 30 min with gentle rocking to remove surface-bound compounds. Cells were then collected in denaturing buffer containing 50 mM Tris-Cl, pH 7.4 with 150 mM NaCl, 1 mM EDTA, 1% Igepal, 0.5% Na-deoxycholate, 0.1% SDS, protease inhibitors (1 μM PMSF, 10 μg/mL aprotinin, 1 μg/mL pepstatin, 5 μg/mL leupeptin). The harvested cells were sonicated on ice and the supernatant and pellet were collected by centrifugation at 13,400×g for 10 min at 4° C.
(§3) UPLC/MS Analysis of Cell Preparations. […]

C2C12 myotubes [3] = assay: Uptake of bioactives into C2C12 myotubes treated with PMI-5011 (UPLC/MS); details: PMI-5011 10 μg/mL
Method: as §1, §2, §3

CN(C)C(=N)N=C(N)N [metformin]
phosphorylation of LKB1 Ser428 in skeletal muscle (LKB1): stimulate LKB1 Ser428 phosphorylation | protein expression of SIRT1 (SIRT1): did not observe an increase | increase in phosphorylation of AMPK (phospho-AMPK to total AMPK, fold over 0-time) (AMPK): 1.4 fold | blood glucose levels [1]: significantly reduced

COc1ccc(CCC(=O)c2ccc(O)cc2O)cc1 [Compound 2, 2′,4′-dihydroxy-4-methoxydihydrochalcone]
detectability of 2 after 16 hours (C2C12 myotubes [2]): undetectable after 16 hours

CC(C)C[C@@H](C=O)NC(=O)[C@H](CC(C)C)NC(=O)[C@H](CC(C)C)NC(=O)OCc1ccccc1 [MG132] (Cbz-Leu-Leu-Leu-aldehyde)
AMPK phosphorylation at Thr172 under proteasome inhibition (AMPK; MG132 10 μM, up to 4 hours): reduced AMPK phosphorylation

NC(=O)c1ncn([C@@H]2O[C@H](COP(=O)(O)O)[C@@H](O)[C@H]2O)c1N [AICAR, 5-Aminoimidazole-4-carboxamide ribonucleotide]
increase in phosphorylation of AMPK (phospho-AMPK to total AMPK, fold over 0-time) (AMPK): 2.4 fold

O=c1cc(Oc2ccc(O)cc2)oc2cc(O)cc(O)c12 [6-demethoxycapillarisin]
detection in the pellets of treated cells (C2C12 myotubes [3]; insoluble fraction): not detected | detection in the samples from treated cells (C2C12 myotubes [3]; not quantified): detected
